In publication PMC6934184, “Selective DNA-PKcs inhibition extends the therapeutic index of localized radiotherapy and chemotherapy” (The Journal of Clinical Investigation, 2019):

Target: T1, AMPK (A1/B1/G2) (Homo sapiens, UniProt Q13131)
T1 construct: purchased Thermo Fisher Scientific (Life Technologies) SelectScreen
Assay: SelectScreen LanthaScreen
Format: binding
Details: read-out: % displacement
Procedure, shortened: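 SelectScreen broad panel; activity (Z'LYTE, Adapta) plus binding formats. ATP: Km app for CSF1R Z'LYTE; 10 for CAMK1 Adapta. Readout = % per kinase.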

T1 sequence (Q13131 whole entry): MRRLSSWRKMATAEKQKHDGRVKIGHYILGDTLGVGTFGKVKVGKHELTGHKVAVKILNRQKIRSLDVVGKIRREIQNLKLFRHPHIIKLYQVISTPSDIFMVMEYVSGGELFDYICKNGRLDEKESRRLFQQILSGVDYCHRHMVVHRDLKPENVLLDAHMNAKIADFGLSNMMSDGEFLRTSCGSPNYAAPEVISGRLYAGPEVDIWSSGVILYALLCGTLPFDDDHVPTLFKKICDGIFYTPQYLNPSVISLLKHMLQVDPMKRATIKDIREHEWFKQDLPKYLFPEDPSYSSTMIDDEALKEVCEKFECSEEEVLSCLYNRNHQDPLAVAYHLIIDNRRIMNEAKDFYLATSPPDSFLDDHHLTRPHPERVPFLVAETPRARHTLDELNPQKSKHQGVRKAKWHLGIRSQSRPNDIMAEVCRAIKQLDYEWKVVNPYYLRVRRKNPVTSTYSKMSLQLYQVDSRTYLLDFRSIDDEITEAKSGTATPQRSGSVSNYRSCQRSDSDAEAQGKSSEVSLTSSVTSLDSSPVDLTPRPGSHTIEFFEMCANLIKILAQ
T1 sequence (Q9Y478 whole entry partner): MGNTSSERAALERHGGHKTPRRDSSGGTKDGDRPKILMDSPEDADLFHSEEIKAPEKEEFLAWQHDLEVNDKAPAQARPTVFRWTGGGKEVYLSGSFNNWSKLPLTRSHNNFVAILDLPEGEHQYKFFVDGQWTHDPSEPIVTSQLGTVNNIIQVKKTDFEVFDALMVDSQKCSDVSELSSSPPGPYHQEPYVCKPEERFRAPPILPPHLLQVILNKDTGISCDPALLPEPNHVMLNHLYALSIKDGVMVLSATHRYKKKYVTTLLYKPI
T1 sequence (Q9UGJ0 whole entry partner): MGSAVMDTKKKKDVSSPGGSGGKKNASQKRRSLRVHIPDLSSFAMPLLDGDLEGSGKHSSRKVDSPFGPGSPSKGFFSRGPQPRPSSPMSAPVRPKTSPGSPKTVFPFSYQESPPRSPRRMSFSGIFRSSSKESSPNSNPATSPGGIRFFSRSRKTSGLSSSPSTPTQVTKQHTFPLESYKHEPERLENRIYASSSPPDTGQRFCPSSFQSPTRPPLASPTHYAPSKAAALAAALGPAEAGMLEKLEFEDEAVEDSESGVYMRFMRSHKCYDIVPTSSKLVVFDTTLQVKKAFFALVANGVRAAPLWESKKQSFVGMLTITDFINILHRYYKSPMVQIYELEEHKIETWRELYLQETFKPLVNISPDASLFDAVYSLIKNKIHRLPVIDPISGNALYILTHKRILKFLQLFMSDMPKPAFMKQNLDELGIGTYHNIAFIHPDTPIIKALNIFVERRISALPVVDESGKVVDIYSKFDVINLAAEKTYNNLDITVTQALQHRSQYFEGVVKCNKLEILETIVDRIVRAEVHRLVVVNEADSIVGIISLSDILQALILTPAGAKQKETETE

## CN(C(=O)CN1CCOCC1)c1ccc2sc3c(-c4cccc5c(=O)cc(N6CC7CCC(C6)O7)oc45)cccc3c2c1 [NU5455]
  inhibition at 1 µM: 2.4%
